Results: US6887883B2, “Use of natural chrysanthone compounds having antiangiogenic activity” (Sigma-Tau Industrie Farmaceutiche Riunite S.p.A., priority 2000, dated 2005)
Read-outs that look alike come from different tables or passages of the source.

Assays:
Type in all cases: cell-based
[1] = test system: Bovine microvascular endothelial cells (BMEC); test: Sulphorhodamine B (SRB) cytotoxicity test on BMEC; settings: for IC50: concentration corresponding to 50% of cytotoxic activity, read-out: Cytototoxicity on BMEC IC50; for Cytototoxicity on BMEC IC0: maximum non-cytotoxic concentration
Protocol: The evaluation of the intrinsic toxicity of chrysanthone A was done by comparing it with suramin using the Sulphorhodamine B (SRB) cytotoxicity test described here below.
Bovine microvascular endothelial cells (BMEC) were seeded, at a density of 3000 cells/well, on 96-well microtiter plates, in normal culture medium (200 μl/well). On the next day the study compounds were added to the wells in scalar concentrations. On the third day after seeding the medium was removed and three washings with PBS were performed. At the end of the washings, 200 μl of culture medium were added to each well and the plates were placed in an incubator at 37° C., 5% CO2 for the next 48 hours. At the end of this incubation period, the medium was removed and the cells were treated cold for 1 hour with a solution of 15% trichloroacetic acid (TCA). The wells were washed three times with distilled H2O by immersion of the plate and removal by overturning. 200 μl/well of 0.4% SRB in 1% acetic acid were added to the plates and incubated for 30 min. The wells were washed three times with 1% acetic acid, and lastly 200 μl/well of Tris 10 mM were added.
The staining of the well was quantified by spectrophotometric readout at a wavelength of 540 nm. Comparison of the values obtained in the wells containing the study compound and the controls made it possible to determine the IC50 and IC0 of the compound according to the invention, defined respectively as the concentration corresponding to 50% of cytotoxic activity (IC50) and the maximum non-cytotoxic concentration (IC0).
(§1) This test was conducted using the procedure described in Example 1.

BMEC endothelial cells = test: Chemotaxis test using the Boyden chamber (BMEC migration towards bovine serum)
Text: This test is the first screening assay for compounds with potential angiogenesis inhibiting or facilitating activity (Glaser B. M. et al, Nature, 1980; 288:483-4).
Chrysanthone A, one of the compounds to which the invention relates, was subjected to a chemotaxis test using the Boyden chamber (Werner F., Goodwin R. H. and Leonard E. J., Journal of Immunology Methods, 1980; 33:239-247).
The realisation of this in-vitro assay has entailed the development of techniques for the isolation and culture of bovine endothelial cells of both the aorta (BAEC) and the adrenal marrow (BMEC) as well as the identification of suitable reference compounds. One of the advantages of the use of the Boyden chamber for the chemotaxis test is the possibility of obtaining quantitative data. The Boyden chamber consists in an upper and a lower well separated by a polycarbonate filter with 8 μm pores. A solution containing the chemoattractant is placed in the lower well, while the cells are inserted in the upper well. After a period of incubation, the cells which have migrated across the filter in response to the chemotactic stimulus are counted on the undersurface of the membrane.
In the chemotaxis test, the chemoattractant selected was bovine serum (1% in DMEM culture medium). The BMEC endothelial cells were resuspended in DMEM with 1% bovine serum albumin (BSA) and analysed in this test for 4 hours. The chemotaxis was quantified by direct cell count under the optical microscope. The migration percentages presented in the chemotaxis table expressed as “% migration” were calculated according to the formula: (T−C/C)×100 where T=mean number (n^o) of cells migrating in the test sample, and C=mean number of cells migrating in the control.
A control consisting of cells not treated with the study compound, migrating towards the serum, was included in every chemotaxis experiment.
The mean number of cells migrating refers to the readings of 5 microscopic fields/well in 4 independent chemotaxis wells per sample.
Normally, suramin is used as the reference compound in chemotaxis tests.
as §1

MCF-7 line = test: SRB cytotoxicity test on human tumour line MCF-7; settings: MCF7, MCF-7 human tumour line
Mes-Sa line = test: SRB cytotoxicity test on human tumour line Mes-Sa
LoVo line = test: SRB cytotoxicity test on human tumour line LoVo
LoVo-Dx line = test: SRB cytotoxicity test on human tumour line LoVo-Dx
[2] = Bos taurus, Endothelial cell, compound at its IC0 (chrysanthone A 0.4 μM, two independent experiments; chrysanthone C 10 μM)

SMILES | IC50 ([1]; Bos taurus, Endothelial cell) [µM] | Cytototoxicity on BMEC IC0 [1] [µM] | % Migration IC0 (BMEC endothelial cells; 1% bovine serum chemoattractant, 4 hours, compound at its IC0 (concentration printed in cell), (T−C/C)×100 vs untreated control) [μM = −58%] | inhibition at 10 µM (BMEC endothelial cells; [2]) [%] | IC50 ([1]; listed as chrysanthone A) [µM] | IC50 [1] [µM] | inhibition at 0.4 µM (BMEC endothelial cells; [2]) [%] | inhibition of BMEC migration (BMEC endothelial cells; compound at its IC0 (chrysanthone A 0.4 μM, two independent experiments; chrysanthone C 10 μM)) | IC50 (MCF-7 line) [µM] | IC50 (Mes-Sa line) [µM] | IC50 (LoVo line) [µM] | IC50 (LoVo-Dx line) [µM]
Cc1ccc(C(=O)Nc2ccc(S(=O)(=O)O)c3cc(S(=O)(=O)O)cc(S(=O)(=O)O)c23)cc1NC(=O)c1cccc(NC(=O)Nc2cccc(C(=O)Nc3cc(C(=O)Nc4ccc(S(=O)(=O)O)c5cc(S(=O)(=O)O)cc(S(=O)(=O)O)c45)ccc3C)c2)c1 [Suramin, reference compound] | > 500 | 100 | 100 |  |  |  |  |  |  |  |  | 
CO[C@@H]1CC(=O)c2c(cc3c(c2O)COC(C)(O)C3)[C@@H]1O (stereo partly drawn) [Chrysanthone C] | 35 | 10 |  | 54 |  |  |  |  |  |  |  | 
CO[C@@H]1CC(=O)c2c(cc3cc(C)ncc3c2O)[C@@H]1O [Chrysanthone A] |  | 0.4 |  |  | 1.5 | 35 | 44 | 52%±2.8 | 11.6 | 7.8 | 15.8 | 80
